# Reference: patent US9932314B2, “Pyrazole compounds and their use as T-type calcium channel blockers” (IDORSIA PHARMACEUTICALS LTD, priority 2015, dated 2018)
# Biological target: T1, voltage-dependent T-type calcium channel subunit alpha-1G (Cav3.2) (Homo sapiens, UniProt O95180)
# T1 construct: expressed in transfected cells; host or cells: HEK293
# Assay: FLIPR calcium flux assay, HEK293 cells recombinantly expressing Cav3.2
# Assay type: cell-based
# Details: Cav3.2-channel, Fluo-4-AM, 3 min incubation, stimulation with 10 mM CaCl2
# Outline: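 HEK293 cells stably expressing human Cav3.2 were loaded with Fluo-4-AM. Compounds diluted in TEAC buffer (pH 7.2) were preincubated for 3 min, then Ca2+ entry was triggered by 10 mM final CaCl2. Inhibition curves were fitted sigmoidally to the area under the fluorescence trace.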
# T1 sequence (O95180 whole entry): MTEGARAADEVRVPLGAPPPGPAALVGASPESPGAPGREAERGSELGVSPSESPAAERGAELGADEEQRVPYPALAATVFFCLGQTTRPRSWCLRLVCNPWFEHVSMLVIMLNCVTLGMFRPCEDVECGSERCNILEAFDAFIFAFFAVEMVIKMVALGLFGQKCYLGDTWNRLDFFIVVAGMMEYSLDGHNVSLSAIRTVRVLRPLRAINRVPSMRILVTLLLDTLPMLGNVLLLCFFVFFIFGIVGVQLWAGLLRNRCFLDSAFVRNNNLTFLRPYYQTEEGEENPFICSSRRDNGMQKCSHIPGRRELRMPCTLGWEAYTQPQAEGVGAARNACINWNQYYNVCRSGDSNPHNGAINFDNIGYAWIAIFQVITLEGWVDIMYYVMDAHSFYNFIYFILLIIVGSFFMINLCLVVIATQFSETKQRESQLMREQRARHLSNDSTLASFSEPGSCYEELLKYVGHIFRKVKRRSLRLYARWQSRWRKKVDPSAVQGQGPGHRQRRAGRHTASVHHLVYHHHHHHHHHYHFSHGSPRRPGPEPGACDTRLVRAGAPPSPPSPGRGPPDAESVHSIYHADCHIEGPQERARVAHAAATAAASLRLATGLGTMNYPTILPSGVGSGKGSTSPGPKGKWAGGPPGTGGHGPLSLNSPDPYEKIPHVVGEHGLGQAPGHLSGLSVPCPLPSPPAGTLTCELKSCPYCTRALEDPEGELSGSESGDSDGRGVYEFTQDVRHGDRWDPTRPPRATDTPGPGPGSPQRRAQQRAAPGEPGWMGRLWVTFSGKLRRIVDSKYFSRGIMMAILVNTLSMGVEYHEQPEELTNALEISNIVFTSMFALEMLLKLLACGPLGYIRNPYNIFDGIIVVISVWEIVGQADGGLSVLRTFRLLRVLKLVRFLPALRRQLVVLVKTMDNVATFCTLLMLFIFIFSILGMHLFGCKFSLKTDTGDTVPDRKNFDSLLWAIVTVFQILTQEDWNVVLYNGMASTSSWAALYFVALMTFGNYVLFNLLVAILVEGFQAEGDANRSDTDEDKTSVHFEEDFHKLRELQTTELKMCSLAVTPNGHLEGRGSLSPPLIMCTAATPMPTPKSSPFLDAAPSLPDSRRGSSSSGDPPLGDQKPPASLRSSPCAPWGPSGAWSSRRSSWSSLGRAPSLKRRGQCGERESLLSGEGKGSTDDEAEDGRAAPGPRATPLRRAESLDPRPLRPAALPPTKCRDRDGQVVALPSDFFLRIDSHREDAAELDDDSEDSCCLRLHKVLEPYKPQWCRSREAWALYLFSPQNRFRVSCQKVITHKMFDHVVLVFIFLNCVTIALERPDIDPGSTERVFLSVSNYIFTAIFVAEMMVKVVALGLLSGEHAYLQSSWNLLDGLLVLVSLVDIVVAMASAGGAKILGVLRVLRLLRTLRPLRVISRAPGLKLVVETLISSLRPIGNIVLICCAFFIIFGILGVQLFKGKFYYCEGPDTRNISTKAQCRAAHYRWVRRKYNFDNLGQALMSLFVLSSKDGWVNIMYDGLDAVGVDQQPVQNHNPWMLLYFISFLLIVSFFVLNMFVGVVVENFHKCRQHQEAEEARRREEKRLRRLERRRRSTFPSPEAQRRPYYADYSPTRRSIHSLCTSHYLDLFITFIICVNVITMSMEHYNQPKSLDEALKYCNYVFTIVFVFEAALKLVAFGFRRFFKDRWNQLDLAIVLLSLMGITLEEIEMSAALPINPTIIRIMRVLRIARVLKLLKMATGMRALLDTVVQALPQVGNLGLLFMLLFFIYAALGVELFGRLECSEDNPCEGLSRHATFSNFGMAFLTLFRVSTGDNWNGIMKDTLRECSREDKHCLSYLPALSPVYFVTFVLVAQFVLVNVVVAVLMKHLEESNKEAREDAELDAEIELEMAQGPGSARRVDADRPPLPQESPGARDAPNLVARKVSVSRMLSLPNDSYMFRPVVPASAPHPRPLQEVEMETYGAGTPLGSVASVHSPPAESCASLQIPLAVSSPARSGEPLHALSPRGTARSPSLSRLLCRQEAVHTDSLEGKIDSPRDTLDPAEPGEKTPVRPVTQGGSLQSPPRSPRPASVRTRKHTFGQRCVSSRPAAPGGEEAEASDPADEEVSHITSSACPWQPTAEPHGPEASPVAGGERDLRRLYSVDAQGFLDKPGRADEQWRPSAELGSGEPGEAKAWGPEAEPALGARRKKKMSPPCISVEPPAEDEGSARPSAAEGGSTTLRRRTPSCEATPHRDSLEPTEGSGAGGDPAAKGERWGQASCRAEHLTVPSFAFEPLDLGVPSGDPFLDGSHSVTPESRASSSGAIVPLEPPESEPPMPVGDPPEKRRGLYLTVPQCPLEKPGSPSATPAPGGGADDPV
row,IC50 [nM],Structure (SMILES)
1,185,"N#Cc1ccc(Cn2ccc(NC(=O)Cc3ccc(N4CC(F)(F)C4)nc3)n2)nc1 [Example 142, N-[1-(5-Cyano-pyridin-2-ylmethyl)-1H-pyrazol-3-yl]-2-[6-(3,3-difluoro-azetidin-1-yl)-pyridin-3-yl]-acetamide]"
2,19,"O=C(Cc1ccc(N2CC(F)(F)C2)nc1)Nc1ccn(Cc2ccc(F)c(F)c2)n1 [Example 143, 2-[6-(3,3-Difluoro-azetidin-1-yl)-pyridin-3-yl]-N-[1-(3,4-difluoro-benzyl)-1H-pyrazol-3-yl]-acetamide]"
3,160,"N#Cc1ccc(Cn2ccc(NC(=O)Cc3ccc(N4CC(F)(F)C4)nc3)n2)cc1 [Example 144, N-[1-(4-Cyano-benzyl)-1H-pyrazol-3-yl]-2-[6-(3,3-difluoro-azetidin-1-yl)-pyridin-3-yl]-acetamide]"
4,44,"O=C(Cc1ccc(N2CC(F)(F)C2)nc1)Nc1ccn(Cc2ccc(F)cc2)n1 [Example 145, 2-[6-(3,3-Difluoro-azetidin-1-yl)-pyridin-3-yl]-N-[1-(4-fluoro-benzyl)-1H-pyrazol-3-yl]-acetamide]"
5,136,"COc1ccc(Cn2ccc(NC(=O)Cc3ccc(N4CC(F)(F)C4)nc3)n2)cc1 [Example 146, 2-[6-(3,3-Difluoro-azetidin-1-yl)-pyridin-3-yl]-N-[1-(4-methoxy-benzyl)-1H-pyrazol-3-yl]-acetamide]"
6,13,"CC(C)Cc1ccc(CC(=O)Nc2ccn(Cc3ccc(F)cc3)n2)cc1 [Example 147, N-[1-(4-Fluoro-benzyl)-1H-pyrazol-3-yl]-2-(4-isobutyl-phenyl)-acetamide]"
7,7.6,"CC(C)c1ccc(CC(=O)Nc2ccn(Cc3ccc(C#N)c(F)n3)n2)cc1 [Example 148, N-[1-(5-Cyano-6-fluoro-pyridin-2-ylmethyl)-1H-pyrazol-3-yl]-2-(4-isopropyl-phenyl)-acetamide]"
8,85,"CN(C)c1ccc(CC(=O)Nc2ccn(Cc3ccc(F)cn3)n2)cc1 [Example 149, 2-(4-Dimethylamino-phenyl)-N-[1-(5-fluoro-pyridin-2-ylmethyl)-1H-pyrazol-3-yl]-acetamide]"
9,682,"CN(C)c1ccc(CC(=O)Nc2ccn(Cc3ccc(F)cn3)n2)cn1 [Example 150, 2-(6-Dimethylamino-pyridin-3-yl)-N-[1-(5-fluoro-pyridin-2-ylmethyl)-1H-pyrazol-3-yl]-acetamide]"
10,649,"CN(CC(F)F)c1ccc(CC(=O)Nc2ccn(Cc3ccc(C#N)cn3)n2)cn1 [Example 151, N-[1-(5-Cyano-pyridin-2-ylmethyl)-1H-pyrazol-3-yl]-2-{6-[(2,2-difluoro-ethyl)-methyl-amino]-pyridin-3-yl}-acetamide]"
11,1160,"N#Cc1ccc(Cn2ccc(NC(=O)Cc3ccc(N4CC[C@H](F)C4)nc3)n2)nc1 [Example 152, N-[1-(5-Cyano-pyridin-2-ylmethyl)-1H-pyrazol-3-yl]-2-[6-((S)-3-fluoro-pyrrolidin-1-yl)-pyridin-3-yl]-acetamide]"
12,78,"N#Cc1ccc(Cn2ccc(NC(=O)Cc3ccc(N4CC[C@H](F)C4)nc3)n2)cc1 [Example 154, N-[1-(4-Cyano-benzyl)-1H-pyrazol-3-yl]-2-[6-((S)-3-fluoro-pyrrolidin-1-yl)-pyridin-3-yl]-acetamide]"
13,70,"O=C(Cc1ccc(N2CC[C@H](F)C2)nc1)Nc1ccn(Cc2ccc(F)cc2)n1 [Example 155, N-[1-(4-Fluoro-benzyl)-1H-pyrazol-3-yl]-2-[6((S)-3-fluoro-pyrrolidin-1-yl)-pyridin-3-yl]-acetamide]"
14,179,"COc1ccc(Cn2ccc(NC(=O)Cc3ccc(N4CC[C@H](F)C4)nc3)n2)cc1 [Example 156, 2-[6-((S)-3-Fluoro-pyrrolidin-1-yl)-pyridin-3-yl]-N-[1-(4-methoxy-benzyl)-1H-pyrazol-3-yl]-acetamide]"
15,34,"CC(C)c1ccc(CC(=O)Nc2ccn(Cc3cc(Cl)c(C#N)cn3)n2)cc1 [Example 157, N-[1-(4-Chloro-5-cyano-pyridin-2-ylmethyl)-1H-pyrazol-3-yl]-2-(4-isopropyl-phenyl)-acetamide]"
16,11,"O=C(Cc1ccc(CC2CC2)cc1)Nc1ccn(Cc2ccc(F)cc2)n1 [Example 158, 2-(4-Cyclopropylmethyl-phenyl)-N-[1-(4-fluoro-benzyl)-1H-pyrazol-3-yl]-acetamide]"
17,1180,"N#Cc1ccc(Cn2ccc(NC(=O)Cc3ccc(N4CC(F)C4)nc3)n2)nc1 [Example 159, N-[1-(5-Cyano-pyridin-2-ylmethyl)-1H-pyrazol-3-yl]-2-[6-(3-fluoro-azetidin-1-yl)-pyridin-3-yl]-acetamide]"
18,29,"O=C(Cc1ccc(N2CC(F)C2)nc1)Nc1ccn(Cc2ccc(F)c(F)c2)n1 [Example 160, N-[1-(3,4-Difluoro-benzyl)-1H-pyrazol-3-yl]-2-[6-(3-fluoro-azetidin-1-yl)-pyridin-3-yl]-acetamide]"
19,258,"N#Cc1ccc(Cn2ccc(NC(=O)Cc3ccc(N4CC(F)C4)nc3)n2)cc1 [Example 161, N-[1-(4-Cyano-benzyl)-1H-pyrazol-3-yl]-2-[6-(3-fluoro-azetidin-1-yl)-pyridin-3-yl]-acetamide]"

row,IC50 [nM],Structure (SMILES)
1,64,"O=C(Cc1ccc(N2CC(F)C2)nc1)Nc1ccn(Cc2ccc(F)cc2)n1 [Example 162, 2-[6-(3-Fluoro-azetidin-1-yl)-pyridin-3-yl]-N-[1-(4-fluoro-benzyl)-1H-pyrazol-3-yl]-acetamide]"
2,345,"COc1ccc(Cn2ccc(NC(=O)Cc3ccc(N4CC(F)C4)nc3)n2)cc1 [Example 163, 2-[6-(3-Fluoro-azetidin-1-yl)-pyridin-3-yl]-N-[1-(4-methoxy-benzyl)-1H-pyrazol-3-yl]-acetamide]"
3,568,"CN(c1ccc(CC(=O)Nc2ccn(Cc3ccc(C#N)cn3)n2)cn1)C1CC1 [Example 164, N-[1-(5-Cyano-pyridin-2-ylmethyl)-1H-pyrazol-3-yl]-2-[6-(cyclopropyl(methyl)amino)-pyridin-3-yl]-acetamide]"
4,13,"CN(c1ccc(CC(=O)Nc2ccn(Cc3ccc(F)c(F)c3)n2)cn1)C1CC1 [Example 165, 2-[6-(Cyclopropyl(methyl)amino)-pyridin-3-yl]-N-[1-(3,4-difluoro-benzyl)-1H-pyrazol-3-yl]-acetamide]"
5,86,"CN(c1ccc(CC(=O)Nc2ccn(Cc3ccc(C#N)cc3)n2)cn1)C1CC1 [Example 166, N-[1-(4-Cyano-benzyl)-1H-pyrazol-3-yl]-2-[6-(cyclopropyl(methyl)amino)-pyridin-3-yl]-acetamide]"
6,21,"CN(c1ccc(CC(=O)Nc2ccn(Cc3ccc(F)cc3)n2)cn1)C1CC1 [Example 167, 2-[6-(Cyclopropyl(methyl)amino)-pyridin-3-yl]-N-[1-(4-fluoro-benzyl)-1H-pyrazol-3-yl]-acetamide]"
7,113,"COc1ccc(Cn2ccc(NC(=O)Cc3ccc(N(C)C4CC4)nc3)n2)cc1 [Example 168, 2-[6-(Cyclopropyl(methyl)amino)-pyridin-3-yl]-N-[1-(4-methoxy-benzyl)-1H-pyrazol-3-yl]-acetamide]"
8,104,"Cc1cc(Cn2ccc(NC(=O)Cc3ccc(C(C)C)cc3)n2)ncc1C#N [Example 169, N-[1-(5-Cyano-4-methyl-pyridin-2-ylmethyl)-1H-pyrazol-3-yl]-2-(4-isopropyl-phenyl)-acetamide]"
9,191,"CC(C)c1ccc(CC(=O)Nc2ccn(Cc3cc(C4CC4)c(C#N)cn3)n2)cc1 [Example 170, N-[1-(5-Cyano-4-cyclopropyl-pyridin-2-ylmethyl)-1H-pyrazol-3-yl]-2-(4-isopropyl-phenyl)-acetamide]"
10,980,"CCN(C)c1ccc(CC(=O)Nc2ccn(Cc3ccc(C#N)cn3)n2)cn1 [Example 171, N-[1-(5-Cyano-pyridin-2-ylmethyl)-1H-pyrazol-3-yl]-2-[6-(ethyl-methyl-amino)-pyridin-3-yl]-acetamide]"
11,15,"CCN(C)c1ccc(CC(=O)Nc2ccn(Cc3ccc(F)c(F)c3)n2)cn1 [Example 172, N-[1-(3,4-Difluoro-benzyl)-1H-pyrazol-3-yl]-2-[6-(ethyl-methyl-amino)-pyridin-3-yl]-acetamide]"
12,188,"CCN(C)c1ccc(CC(=O)Nc2ccn(Cc3ccc(C#N)cc3)n2)cn1 [Example 173, N-[1-(4-Cyano-benzyl)-1H-pyrazol-3-yl]-2-[6-(ethyl-methyl-amino)-pyridin-3-yl]-acetamide]"
13,319,"CCN(C)c1ccc(CC(=O)Nc2ccn(Cc3ccc(OC)cc3)n2)cn1 [Example 174, 2-[6-(Ethyl-methyl-amino)-pyridin-3-yl]-N-[1-(4-methoxy-benzyl)-1H-pyrazol-3-yl]-acetamide]"
14,17,"O=C(Cc1ccc(N2CCCC2)nc1)Nc1ccn(Cc2ccc(F)c(F)c2)n1 [Example 175, N-[1-(3,4-Difluoro-benzyl)-1H-pyrazol-3-yl]-2-(6-pyrrolidin-1-yl-pyridin-3-yl)-acetamide]"
15,67,"N#Cc1ccc(Cn2ccc(NC(=O)Cc3ccc(N4CCCC4)nc3)n2)cc1 [Example 176, N-[1-(4-Cyano-benzyl)-1H-pyrazol-3-yl]-2-(6-pyrrolidin-1-yl-pyridin-3-yl)-acetamide]"
16,18,"O=C(Cc1ccc(N2CCCC2)nc1)Nc1ccn(Cc2ccc(F)cc2)n1 [Example 177, N-[1-(4-Fluoro-benzyl)-1H-pyrazol-3-yl]-2-(6-pyrrolidin-1-yl-pyridin-3-yl)-acetamide]"
17,99,"COc1ccc(Cn2ccc(NC(=O)Cc3ccc(N4CCCC4)nc3)n2)cc1 [Example 178, N-[1-(4-Methoxy-benzyl)-1H-pyrazol-3-yl]-2-(6-pyrrolidin-1-yl-pyridin-3-yl)-acetamide]"
18,2500,"COCCN(C)c1ccc(CC(=O)Nc2ccn(Cc3ccc(C#N)cn3)n2)cn1 [Example 179, N-[1-(5-Cyano-pyridin-2-ylmethyl)-1H-pyrazol-3-yl]-2-{6-[(2-methoxy-ethyl)-methyl-amino]-pyridin-3-yl}-acetamide]"
